In PMC7232172, “APETx-Like Peptides from the Sea Anemone Heteractis crispa, Diverse in Their Effect on ASIC1a and ASIC3 Ion Channels” (Toxins, 2020):
Bridges are numbered along the chain shown (N, C = ends). Where no end group is shown, it is not given here.

Key:
rat ASIC3 channel = molecular target: T1, rat ASIC3 channel (Rattus norvegicus, UniProt O35240); experiment: Two-electrode voltage clamp, homomeric ASIC3 transient currents in Xenopus laevis oocytes; assay type: cell-based; settings: mean ± SD, 5 cells
T1 construct: expressed in transfected cells; host or cells: Xenopus laevis oocytes (cRNA injection)
T1 sequence (O35240 1-533): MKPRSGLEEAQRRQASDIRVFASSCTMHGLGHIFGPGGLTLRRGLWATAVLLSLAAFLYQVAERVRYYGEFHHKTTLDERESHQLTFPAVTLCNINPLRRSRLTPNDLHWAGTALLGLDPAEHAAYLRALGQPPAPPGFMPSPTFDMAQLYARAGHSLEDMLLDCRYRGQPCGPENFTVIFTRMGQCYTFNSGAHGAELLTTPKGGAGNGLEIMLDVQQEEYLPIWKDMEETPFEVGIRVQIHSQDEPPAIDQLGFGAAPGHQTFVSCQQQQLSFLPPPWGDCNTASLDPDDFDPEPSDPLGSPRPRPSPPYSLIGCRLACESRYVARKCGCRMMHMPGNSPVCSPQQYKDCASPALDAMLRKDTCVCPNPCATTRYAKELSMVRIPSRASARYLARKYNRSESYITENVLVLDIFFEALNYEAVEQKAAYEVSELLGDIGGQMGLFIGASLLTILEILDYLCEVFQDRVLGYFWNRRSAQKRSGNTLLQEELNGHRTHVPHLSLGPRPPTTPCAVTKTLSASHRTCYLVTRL
Experimental: (§1) The study of the pharmacological profile of the Hcr 1b-3 and Hcr 1b-4 peptides from H. crispa was carried out on two major ion channel subtypes, ASIC1a and ASIC3. Homomeric ASIC1a channels expressed in X. laevis oocytes were activated by a rapid pH drop from 7.8 to 5.5 in 15 s after peptide application. To analyze the effect of HcrTxs on the transient component of the ASIC3 current, the channels were activated by rapid extracellular acidification from pH 7.8 to 4.0, but effects on the sustained ASIC3 current were not studied. The inhibitory activity of three class 1b sea anemone toxins, APETx2, Hcr 1b-1, and Hcr 1b-2, towards ASICs was previously assayed in electrophysiological experiments (Table 2). In addition, we previously reported that the Hcr 1b-3 and Hcr 1b-4 peptides inhibited about 54% and 80% of the ASIC1a current, respectively.
Animal care and animal experiments were performed following the protocol approved by the Animal Care and Use Committee of the Shemyakin-Ovchinnikov Institute of Bioorganic Chemistry, Approval Code: 267/2018; Approval Date: 2 October 2018. RAS. Rat ASIC1a and ASIC3 channels were expressed in Xenopus laevis oocytes after injection of 2.5–10 ng of cRNA, as previously described. After injection oocytes were kept for 2–3 days at 19 °C and then up to 5 days at the temperature of 15–16 °C in sterile ND96 medium (96 mM NaCl, 2 mM KCl, 1.8 mM CaCl2, 1 mM MgCl2, 5 mM HEPES titrated to pH 7.4 with NaOH supplemented with 50 μg/mL of gentamycin). Two-electrode voltage clamp recordings were performed using GeneClamp 500 amplifier (Axon Instruments, Foster City, CA, USA). The data were filtered at 100 Hz and digitized at 1000 Hz by an AD converter L780 (LCard, Moscow, Russia) using in-house software. The solutions were applied to a cell chamber (volume 75 μL). The laminar flow of an external solution of ND96 (pH 7.8) was used at a rate of 1 mL/min. ASIC1a and ASIC3 were activated by a short pH drop from 7.8 to 5.5 or to 4.0 (10 mM MES or 10 mM acetic acid was used as the buffer solution, respectively) in supplementary 0.1% BSA solution. Peptides were applied for up to 15 s before the activation impulse. A value of currents inhibition was calculated as the ratio of the peak current amplitude when the peptide was applied to the average amplitude of the control peak currents before and after the peptide application and expressed as a percentage. To construct the concentration–response curves, a logistic equation was the following: y = ((1 – A)/(1 + ([C]/IC50) nH)) + A; where y is the relative value of current inhibition; C is the peptide concentration; IC50 is the half maximal inhibitory concentration; nH is the Hill coefficient; A is the response value at maximal inhibition (% of control). Calculations were carried out using software Origin 7.0. […]

rat ASIC1a channel = molecular target: T2, rat ASIC1a channel (Rattus norvegicus, UniProt P55926); experiment: Two-electrode voltage clamp, homomeric ASIC1a currents in Xenopus laevis oocytes; assay type: cell-based
T2 construct: expressed in transfected cells; host or cells: Xenopus laevis oocytes (cRNA injection)
T2 sequence (P55926 1-526): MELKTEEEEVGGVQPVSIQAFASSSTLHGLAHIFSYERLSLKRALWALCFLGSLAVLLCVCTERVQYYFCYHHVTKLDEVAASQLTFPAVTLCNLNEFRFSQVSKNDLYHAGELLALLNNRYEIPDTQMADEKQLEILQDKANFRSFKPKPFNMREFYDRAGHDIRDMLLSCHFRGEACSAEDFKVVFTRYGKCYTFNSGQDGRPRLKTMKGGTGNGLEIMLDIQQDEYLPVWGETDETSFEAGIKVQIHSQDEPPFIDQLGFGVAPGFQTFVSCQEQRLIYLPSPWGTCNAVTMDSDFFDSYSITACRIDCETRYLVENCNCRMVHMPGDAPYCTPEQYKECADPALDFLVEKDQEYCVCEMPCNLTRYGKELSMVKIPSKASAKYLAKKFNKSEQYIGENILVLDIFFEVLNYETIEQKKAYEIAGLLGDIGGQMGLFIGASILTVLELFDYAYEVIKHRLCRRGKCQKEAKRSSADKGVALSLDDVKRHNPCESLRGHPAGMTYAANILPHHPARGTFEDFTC
Experimental: as §1
Animal care and animal experiments were performed following the protocol approved by the Animal Care and Use Committee of the Shemyakin-Ovchinnikov Institute of Bioorganic Chemistry, Approval Code: 267/2018; Approval Date: 2 October 2018. RAS. Rat ASIC1a and ASIC3 channels were expressed in Xenopus laevis oocytes after injection of 2.5–10 ng of cRNA, as previously described. After injection oocytes were kept for 2–3 days at 19 °C and then up to 5 days at the temperature of 15–16 °C in sterile ND96 medium (96 mM NaCl, 2 mM KCl, 1.8 mM CaCl2, 1 mM MgCl2, 5 mM HEPES titrated to pH 7.4 with NaOH supplemented with 50 μg/mL of gentamycin). Two-electrode voltage clamp recordings were performed using GeneClamp 500 amplifier (Axon Instruments, Foster City, CA, USA). The data were filtered at 100 Hz and digitized at 1000 Hz by an AD converter L780 (LCard, Moscow, Russia) using in-house software. The solutions were applied to a cell chamber (volume 75 μL). The laminar flow of an external solution of ND96 (pH 7.8) was used at a rate of 1 mL/min. ASIC1a and ASIC3 were activated by a short pH drop from 7.8 to 5.5 or to 4.0 (10 mM MES or 10 mM acetic acid was used as the buffer solution, respectively) in supplementary 0.1% BSA solution. Peptides were applied for up to 15 s before the activation impulse. A value of currents inhibition was calculated as the ratio of the peak current amplitude when the peptide was applied to the average amplitude of the control peak currents before and after the peptide application and expressed as a percentage. To construct the concentration–response curves, a logistic equation was the following: y = ((1 – A)/(1 + ([C]/IC50) nH)) + A; where y is the relative value of current inhibition; C is the peptide concentration; IC50 is the half maximal inhibitory concentration; nH is the Hill coefficient; A is the response value at maximal inhibition (% of control). Calculations were carried out using software Origin 7.0. The data are presented as mean ± SD.

ASIC1a = settings: desensitization: ref 21; closed state: ref 13, 20, 22; cited from earlier work
From the text: Animal toxins produced by spiders, snakes, and sea anemones are considered molecular instruments for the study of ASICs gating and promising drug precursors. […] Peptides from spiders and snakes inhibit mostly mammalian ASIC1a channels. […] Peptides Hcr 1b-3 and Hcr 1b-4, electrophysiologically examined in this study, are the closest homologues of Hcr 1b-1 and Hcr 1b-2 (78%–97% of identity) as well as APETx2 (46%–49% of identity) that are attributed to β-defensin-like peptides. […] (Table 2). Despite the absence of the crucial basic residue Arg17 [31] in the sequence ...

ASIC1b = settings: cited from earlier work
From the text: It is noteworthy that to increase the current through the ASICs it takes an order of magnitude higher concentration of toxins than to inhibit it. […] No ASIC3 ...

[1] = tested on: models of cerebral ischemia, retinal stroke, optic nerve crush, and Parkinson’s disease; settings: cited from earlier work
From the text: Animal toxins produced by spiders, snakes, and sea anemones are considered molecular instruments for the study of ASICs gating and promising drug precursors. […] Peptides from spiders and snakes inhibit mostly mammalian ASIC1a channels. Two of ASIC1a inhibitors from spiders, ...

| Substance | IC50 (rat ASIC3 channel; X. laevis oocytes, pH drop 7.8 to 4.0 (legend of Figure 4: from 7.4), logistic fit, read-out: IC50, inhibition of transient rASIC3 current) | A (response value at maximal inhibition, % of control), rASIC3 (rat ASIC3 channel; fit parameter, pH drop to 4.0) | inhibition at 120 µM (rat ASIC1a channel; Hcr 1b-3 at 120 μM, Hcr 1b-4 from concentration–response relationship, read-out: maximal inhibition of ASIC1a current) | IC50 (rat ASIC1a channel; X. laevis oocytes, pH drop 7.8 to 5.5 (legend of Figure 4: from 7.4), peptide applied up to 15 s before, mean ± SD, 5 cells, logistic fit, read-out: IC50, inhibition of rASIC1a current) | A (response value at maximal inhibition, % of control), rASIC1a (rat ASIC1a channel; fit parameter, pH drop to 5.5, mean ± SD, 5 cells) | effect on ASIC1a gating state (ASIC1a) | effect on ASIC1b current (ASIC1b) | neuroprotection [1] |
| --- | --- | --- | --- | --- | --- | --- | --- | --- |
| GTPCKCHGYIGVYWFMLAGCPDGYGYNLSCPYFLGICCVKK (disulfide 4-37, 6-30, 20-38) [Hcr 1b-3] | 17 ± 5.8 µM | 26 ± 7% | 70% | 4.95 ± 0.19 µM | 30.3 ± 0.7% | – | – | – |
| PcTx1: spider toxin from Psalmopoeus cambridgei (EDCIPKWKGCVNRHGDCCEGLECWKRRRSFEVCVPKTPKT; ends and bridges not checked; cysteine pairing not given here; UniProt P60514 1-40, looked up) | – | – | – | – | – | promote desensitization of ASIC1a | potentiate ASIC1b | effective neuroprotectors |
| mambalgin-1: snake toxin from Dendroaspis polylepis (LKCYQHGKVVTCHRDMKFCYHNTGMPFRNLKLILQGCSSSCSETENNKCCSTDRCNK; UniProt P0DKR6 22-78, looked up) | – | – | – | – | – | stabilize the closed channels state | – | – |
